{
  "source": "patent US20080300298A1",
  "about": "“Honokiol Derivates For the Treatment of Proliferative Disorders” (priority 2005, published 2008)",
  "key": {"[1]": {"system": "HUVEC", "test": "direct toxicity against HUVEC (colorimetric assay)", "assay_type": "cell-based, human", "conditions": "8 ug/ml"}, "[2]": {"system": "NFkB in M12.4.1 cells", "test": "NFkB activation (luciferase assay)", "assay_type": "cell-based, Mouse", "conditions": "M12.4.1 cells transfected with hCD40-LMP1; not necessarily to baseline", "method": "Mouse M12.4.1 cells (1.5×107), stably transfected with hCD40-LMP1 chimeric molecule were transiently transfected with […] 4×NFkB luciferase reporter plasmid and […] Renilla luciferase vector (pRL-null; Promega, Madison, Wis.) by electroporation. Cells (2×10^6 cells/ml) were rested on ice for 15 minutes, treated with medium alone (BCM), 10 mg/ml anti-TNF-a (MP6-XT3; MP6-XT22), or […] Honokiol for 30 minutes, then incubated an additional 6 hours in the presence of BCM, 10 mg/ml anti-(m)ouse or anti-(h)uman CD40 or isotype controls. After stimulation, cells were pelleted, lysed, and assayed for relative luciferase activity (NFkB: Renilla) per manufacturer's protocol (Promega) using a Turner Designs 20/20 luminometer, with settings of 2 second delay followed by 10 second read. (Note: anti-mCD40 reacts with endougenous CD40 and anti-hCD40 reacts with transfected hCD40-LMP1)."}, "[3]": {"system": "lymph node cultures", "test": "antigen recall lymph node cultures from treated mice", "assay_type": "in vivo, C57BL/6 or mCD40-LMP1 Tg mice", "conditions": "honokiol 3 mg/day, day 21-70 post-immunization", "method": "Mice were assessed 70 days post-immunization with CII/CF or CFA only (or naïve). Some mice received honokiol (3 mg/day) from day 21-70 post-immunization."}, "[4]": {"system": "SVR cells", "test": "apoptosis of SVR cells", "assay_type": "cell-based", "conditions": "18 and 48 h", "method": "FIG. 13 illustrates the effect of honokiol and magnolol on apoptosis. The light columns represent SVR cells treated with magnolol, and the dark columns represent SVR cells treated with honokiol. The control lanes represent cells immediately after treatment compared with 18 and 48 h of treatment."}, "[5]": {"system": "caspases, PARP, AIF in MM.1S cells", "test": "Western blotting of apoptotic pathway", "assay_type": "cell-based, human", "conditions": "10 ug/ml"}, "[6]": {"system": "tumor cells isolated from patients with relapsed refractory MM", "test": "cytotoxicity against patient MM cells (CD38high, flow cytometry)", "assay_type": "cell-based, human", "conditions": "8 ug/ml, 48 h, N=6, mean ±SD", "method": "Assessment of HNK-induced cytotoxicity against patient MM cells: Cytotoxicity of HNK against fresh MM cells was determined as previously determined, see, for example, Mitsiades et al Cancer Cell. 2004; 5:221-230. Fresh MNCs separated from bone marrow samples derived from patients with MM were incubated with PE-conjugated anti-CD138 antibody and/or FITC-conjugated anti-CD38 antibody (BD Biosciences, San Diego, Calif.) for 30 minutes on ice and washed, followed by analysis using EPICS XL flow cytometer (Beckman Coulter, Hialeah, Fla.). A CD38^high fraction enriched for MM cells was determined in side and forward scatter panel in each case. The expression of CD138 on gated cells was also evaluated. After HNK-treatment for 48 h, cells were harvested and percentage of CD38^high cells with or without HNK-treatment was evaluated. […] Cells were stained with propidium iodide (PI; 50 μg/mL; Sigma, St Louis, Mo.), and cell cycle profile was determined by using the program M software on an EPICS XL flow cytometer (Beckman Coulter, Hialeah, Fla.). […] Fluorescence intensity of TUNEL and APO 2.7 staining was determined using on EPICS XL flow cytometer. Cytotoxicity was determined by trypan blue exclusion assay. […] Cell growth and induction of apoptosis were determined both by colorimetric assay and now cytometric detection of APO2.7 after 48 h treatment. […] DNA synthesis was measured by [^3H]-thymidine uptake. […]"}},
  "data": [
    {"smiles": "C=CCc1ccc(O)c(-c2ccc(O)c(CC=C)c2)c1", "note": "[HNK, Honokiol]", "values": [
      {"measurement": "viability of HUVEC cells", "setting": "[1]", "value": "did not affect the viability of HUVEC cells"},
      {"measurement": "NFkB activation (luciferase assay)", "setting": "[2]", "value": "inhibited by honokiol in a dose dependent manner"},
      {"measurement": "proliferation and cytokine production of antigen recall lymph node cultures", "setting": "[3]", "value": "decreased proliferation and IFN-g production, with unaltered IL-10 production"},
      {"measurement": "induction of apoptosis compared with magnolol", "setting": "[4]", "value": "more effective in the induction of apoptosis than magnolol"},
      {"measurement": "cleavage of caspases and PARP", "setting": "[5]; 12 and 24 h", "value": "Cleavage of caspases 7, 8, 9 and PARP were induced"},
      {"measurement": "release of AIF", "setting": "[5]; 24 h", "value": "induced release of mitochondrial pro-apoptotic protein AIF to cytosol"},
      {"measurement": "percentage of CD38high cells compared to control cultures", "setting": "[6]", "value": "26.2±15.8", "unit": "%"}
    ]}
  ]
}
